The molecules below were run against T1, human apelin receptor (Homo sapiens, UniProt P35414) (assay: Determination of agonism on the human apelin receptor by a calcium fluorescence assay (FLIPR)). Settings: EC50 (APJ agonism), HEK293 cells stably transfected with human apelin receptor and Giaq protein, Fluo-4 calcium fluorescence.
T1 construct: expressed in transfected cells
T1 sequence (P35414 1-380): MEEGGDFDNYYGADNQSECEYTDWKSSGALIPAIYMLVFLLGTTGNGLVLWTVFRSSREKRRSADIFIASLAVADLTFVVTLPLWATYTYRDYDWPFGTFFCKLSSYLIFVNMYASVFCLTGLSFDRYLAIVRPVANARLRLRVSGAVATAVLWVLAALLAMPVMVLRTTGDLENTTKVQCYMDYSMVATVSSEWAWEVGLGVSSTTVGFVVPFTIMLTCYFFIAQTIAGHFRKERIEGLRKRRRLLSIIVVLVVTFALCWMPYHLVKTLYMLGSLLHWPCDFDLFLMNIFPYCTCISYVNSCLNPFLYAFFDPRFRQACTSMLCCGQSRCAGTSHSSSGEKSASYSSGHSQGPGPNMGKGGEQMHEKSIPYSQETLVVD
Type: cell-based
Source text: Determination of Agonism on the Human Apelin Receptor by a Calcium Fluorescence Assay (FLIPR)
The assay is based on the detection of intracellular calcium changes detected by the selective, calcium-chelating dye Fluo-4 (Molecular Probes). A large fluorescence intensity increase is observed upon calcium association with Fluo-4. The dye is delivered to the cell interior using an acetoxymethylester form of Fluo-4, where the intracellular esterase activity results in the charged species being released and trapped within the cytoplasm of the cell. […] By co-expressing the human apelin receptor and a promiscuous Giaq protein, agonism of the apelin receptor couples to phospholipase-C resulting in intracellular calcium mobilization.
The HEK293 cells were stably transfected with the human apelin receptor and the Giaq protein. Cells were selected and maintained in a log phase of growth at 37° and 5% CO2 in the Iscove's minimal essential medium, 10% fetal calf serum, 1× Penicillin-Streptomycin, 400 μg/mL G418. One day prior the assay, cells were passaged by accutase and plated at a density of 50,000 cells/well onto a 96-well plates with black border but clear bottom (Costar, cat#3904) in a final volume of 200 μl growth medium.
In order to load the cells the next day with the calcium-sensitive dye, growth medium was carefully replaced by dye solution (100 μl/well) containing Fluo-4 (4 μM) in basic measurement buffer (135 mM NaCl, 5 mM KCl, 1 mM magnesium sulphate, 5 mM glucose, 20 mM Hepes, 2.5 mM probenecid; adjusted to pH 7.4). Cells were incubated for 1 h at 37° C., and then washed 3× with buffer containing no dye. The washer was programmed to leave a remaining volume of 150 μl after the third wash in the plate.
During the dye-loading of the cells, a serial compound dilution was performed in a separate 96-well plate with overall 4× increased concentrations. Small aliquots of DMSO stock solutions of the compounds (10 mM in 100% DMSO were aliquoted into 150 μl buffer in the first rows of the 96-well plates, and then serially diluted by a factor of 1:3 transferring each time 30 μl to the next rows already containing 60 μl buffer. All compounds were tested in a least 7 concentrations, each condition was performed in triplicates. As comparator, we used freshly prepared apelin-13 solutions, for which also a concentration-response curve was determined at each measurement day. The compound plate was incubated for 10 min after the final dilutions steps at 37° C. before transferring the dye-loaded cell plate and the compound plate into a FLIPR Tetra reader (Molecular Devices). Measurement within this reader started by pipetting the agonist solution (50 μl) on the cell plate. Overall perform 60 reads were performed with an interval of 2 sec. The maximum of the fluorescence transient was used to calculate the agonistic response of the cells. In order to normalize this response, which may vary from plate to plate we set the maximum fluorescence achieved by 1 μM apelin-13 on this plate as 100%.
EC-50 values for apelin-13 and the apelin receptor compounds described in this patent were determined by standard algorithms using a specific software package.

Structure (SMILES)	EC50 [nM]
CCC(CC)n1c(Cc2cccs2)nc2cc(C(=O)N[C@H](CO)C(C)(C)C)ccc21 [Example 192, 1-(1-Ethyl-propyl)-2-thiophen-2-ylmethyl-1H-benzoimidazole-5-carboxylic acid ((S)-1-hydroxymethyl-2,2-dimethyl-propyl)-amide]	14000

Same assay, conditions: HEK293 cells stably transfected with human apelin receptor and Giaq protein, Fluo-4 calcium fluorescence, read-out: EC50 (APJ agonism)

Structure (SMILES)	EC50 [nM]
CCC(CC)n1c(Cc2cccs2)nc2cc(C(=O)N[C@@H](CC(C)C)C(=O)NC3CCN(c4ncccn4)CC3)ccc21 [Example 352, 1-(1-Ethyl-propyl)-2-thiophen-2-ylmethyl-1H-benzoimidazole-5-carboxylic acid [(S)-3-methyl-1-(1-pyrimidin-2-yl-piperidin-4-ylcarbamoyl)-butyl]-amide]	2980
CCC(CC)n1c(Cc2cccs2)nc2cc(C(=O)NC(CC(C)(C)C)C(=O)O)ccc21 (stereo not drawn) [Example 126, 2-{[1-(1-Ethyl-propyl)-2-thiophen-2-ylmethyl-1H-benzoimidazole-5-carbonyl]-amino}-4,4-dimethyl-pentanoic acid]	3930
CCC(CC)n1c(CC2CCCC2)nc2cc(C(=O)NC(CC(=O)O)c3ccccc3)ccc21 (stereo not drawn) [Example 43, 3-{[2-Cyclopentylmethyl-1-(1-ethyl-propyl)-1H-benzoimidazole-5-carbonyl]-amino}-3-phenyl-propionic acid]	14500
CCC(CC)n1c(Cc2cccs2)nc2cc(C(=O)N[C@@H](CC3CCCCC3)[C@@H](O)CC(=O)O)ccc21 [Example 79, (3S,4S)-5-Cyclohexyl-4-{[1-(1-ethyl-propyl)-2-thiophen-2-ylmethyl-1H-benzoimidazole-5-carbonyl]-amino}-3-hydroxy-pentanoic acid]	80
CCCC(CCO)NC(=O)c1ccc2c(c1)nc(Cc1cccs1)n2C(CC)CC (stereo not drawn) [Example 214, 1-(1-Ethyl-propyl)-2-thiophen-2-ylmethyl-1H-benzoimidazole-5-carboxylic acid [1-(2-hydroxy-ethyl)-butyl]-amide]	926
CCC(CC)n1c(Cc2cccs2)nc2cc(C(=O)N[C@@H](CC(C)C)C(=O)NCCCN3CC(C)OC(C)C3)ccc21 (stereo partly drawn) [Example 294, 1-(1-Ethyl-propyl)-2-thiophen-2-ylmethyl-1H-benzoimidazole-5-carboxylic acid {(S)-1-[3-(2,6-dimethyl-morpholin-4-yl)-propylcarbamoyl]-3-methyl-butyl}-amide]	722
CCC(CC)n1c(Cc2cccs2)nc2cc(C(=O)N[C@H](CO)CC(C)C)ccc21 [Example 209, 1-(1-Ethyl-propyl)-2-thiophen-2-ylmethyl-1H-benzoimidazole-5-carboxylic acid ((S)-1-hydroxymethyl-3-methyl-butyl)-amide]	254
CCC(CC)n1c(Cc2cccs2)nc2cc(C(=O)N[C@@H](CC(C)C)C(=O)NCCNS(C)(=O)=O)ccc21 [Example 402, 1-(1-Ethyl-propyl)-2-thiophen-2-ylmethyl-1H-benzoimidazole-5-carboxylic acid [(S)-1-(2-methanesulfonylamino-ethylcarbamoyl)-3-methyl-butyl]-amide]	777
CCC(CC)n1c(Cc2cccs2)nc2cc(C(=O)N[C@@H](CC(C)C)C(=O)NCc3cccc(OC)c3)ccc21 [Example 364, 1-(1-Ethyl-propyl)-2-thiophen-2-ylmethyl-1H-benzoimidazole-5-carboxylic acid [(S)-1-(3-methoxy-benzylcarbamoyl)-3-methyl-butyl]-amide]	13500
CC(C)C[C@H](NC(=O)c1ccc2c(c1)nc(Cc1cccs1)n2-c1ccccc1)C(=O)O [Example 132, (S)-4-Methyl-2-[(1-phenyl-2-thiophen-2-ylmethyl-1H-benzoimidazole-5-carbonyl)-amino]-pentanoic acid]	700
CCC(CC)n1c(Cc2cccs2)nc2cc(C(=O)NC(CC3CCCCCC3)C(=O)O)ccc21 (single isomer, unassigned) [Example 449]	853
CCC(CC)n1c(Cc2cccs2)nc2cc(C(=O)NC(CC(C)C)c3nc(C)c(C)s3)ccc21 (stereo not drawn) [Example 480, 1-(1-Ethyl-propyl)-2-thiophen-2-ylmethyl-1H-benzoimidazole-5-carboxylic acid [1-(4,5-dimethyl-thiazol-2-yl)-3-methyl-butyl]-amide]	20000
CCC(CC)n1c(Cc2cccs2)nc2cc(C(=O)N[C@H](CC(=O)O)CC(C)C)ccc21 [Example 95, (S)-3-{[1-(1-Ethyl-propyl)-2-thiophen-2-ylmethyl-1H-benzoimidazole-5-carbonyl]-amino}-5-methyl-hexanoic acid]	95
CCC(CC)n1c(Cc2cccs2)nc2cc(C(=O)N[C@@H](CC(C)C)C(=O)N3CCCC3)ccc21 [Example 379, 1-(1-Ethyl-propyl)-2-thiophen-2-ylmethyl-1H-benzoimidazole-5-carboxylic acid [(S)-3-methyl-1-(pyrrolidine-1-carbonyl)-butyl]-amide]	1800
CC(C)C[C@@H](CC(=O)O)NC(=O)c1ccc2c(c1)nc(Cc1ccco1)n2C1CCCCC1C (single isomer, unassigned) [Example 435]	226
CCCCC(CC(=O)O)NC(=O)c1ccc2c(c1)nc(Cc1cccs1)n2C(CC)CC (single isomer, unassigned) [Example 453]	781
CCC(CC)n1c(Cc2cccs2)nc2cc(C(=O)N[C@@H](CC(C)C)C(=O)N3CCC(N4CCCC(C)C4)CC3)ccc21 (stereo partly drawn) [Example 281, 1-(1-Ethyl-propyl)-2-thiophen-2-ylmethyl-1H-benzoimidazole-5-carboxylic acid [(S)-3-methyl-1-(3-methyl-[1,4′]bipiperidinyl-1′-carbonyl)-butyl]-amide]	1210
CCCC(CCO)NC(=O)c1ccc2c(c1)nc(Cc1cccs1)n2C(CC)CC (single isomer, unassigned) [Example 470]	235
CCCC(NC(=O)c1ccc2c(c1)nc(Cc1cccs1)n2C(CC)CC)C(C)(C)C(=O)O (single isomer, unassigned) [Example 467]	265
CCC(CC)n1c(Cc2cccs2)nc2cc(C(=O)N[C@@H](CC(C)C)C(=O)O)ccc21 [Example 114, (S)-2-{[1-(1-Ethyl-propyl)-2-thiophen-2-ylmethyl-1H-benzoimidazole-5-carbonyl]-amino}-4-methyl-pentanoic acid]	185
CCC(CC)n1c(Cc2cccs2)nc2cc(C(=O)N[C@@H](CC(C)C)C(=O)NCC3CN(Cc4ccccc4)CCO3)ccc21 (stereo partly drawn) [Example 330, 1-(1-Ethyl-propyl)-2-thiophen-2-ylmethyl-1H-benzoimidazole-5-carboxylic acid {(S)-1-[(4-benzyl-morpholin-2-ylmethyl)-carbamoyl]-3-methyl-butyl}-amide]	2480
CCC(CC)n1c(Cc2cccs2)nc2cc(C(=O)N[C@@H](CC(C)C)C(=O)NCC3CCCCN3C)ccc21 (stereo partly drawn) [Example 257, 1-(1-Ethyl-propyl)-2-thiophen-2-ylmethyl-1H-benzoimidazole-5-carboxylic acid {(S)-3-methyl-1-[(1-methyl-piperidin-2-ylmethyl)-carbamoyl]-butyl}-amide]	425
CCC(CC)n1c(Cc2cccs2)nc2cc(C(=O)NC(CC(C)C)C(C)(C)C(=O)O)ccc21 (single isomer, unassigned) [Example 464]	126

From US9156796B2, “Benzoimidazole-carboxylic acid amide derivatives as APJ receptor modulators” (SANOFI, priority 2013, dated 2015)
